Source: the supplement of paper PMC10307832

Tests used:
Test in all cases: relative viability (nuclei count vs DMSO), 5 days (fraction); higher = more cells survive
RO-3306 + Pemetrexed = compound: C1=CC2=C(C=CC(=C2)C=C3C(=O)NC(=NCC4=CC=CS4)S3)N=C1 [RO-3306] + Nc1nc2[nH]cc(CCc3ccc(C(=O)N[C@@H](CCC(=O)O)C(=O)O)cc3)c2c(=O)[nH]1 [Pemetrexed] (partner 0.2 µM)
Summary of the method: (§1)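 After 5 days of treatment, lung cancer cells in 1536-well plates were fixed and stained in a single step (final 0.05% Triton X-100, 1% formaldehyde, 1 ug/ml Hoechst) and their nuclei counted on 4× images. Treatment had been applied by pin tool the day after seeding as one drug alone or as a fixed anchor-drug dose with five library-drug doses (not always all listed) in √10 steps. Relative viability is the nuclei count of treated wells divided by that of vehicle wells, and values are medians of duplicate plates.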

[1] = compound: O=S(=O)(c1ccccc1)N(CC(F)(F)F)c1ccc(C(O)(C(F)(F)F)C(F)(F)F)cc1 + CC(=O)Nc1cccc(-n2c(=O)n(C3CC3)c(=O)c3c(Nc4ccc(I)cc4F)n(C)c(=O)c(C)c32)c1 [Trametinib] (partner 0.02 µM)
Summary of the method: as §1

[2] = compound: O=S(=O)(c1ccccc1)N(CC(F)(F)F)c1ccc(C(O)(C(F)(F)F)C(F)(F)F)cc1 + COc1cccc2cc(-c3nc([C@H]4CC[C@H](C(=O)O)CC4)n4ncnc(N)c34)[nH]c12 [OSI-027] (partner 0.5 µM)
Summary of the method: as §1

[3] = compound: O=S(=O)(c1ccccc1)N(CC(F)(F)F)c1ccc(C(O)(C(F)(F)F)C(F)(F)F)cc1 + COc1cc2c(Oc3ccc(NC(=O)C4(C(=O)Nc5ccc(F)cc5)CC4)cc3F)ccnc2cc1OCCCN1CCOCC1 [Foretinib] (partner 0.25 µM)
Summary of the method: as §1

[4] = compound: O=S(=O)(c1ccccc1)N(CC(F)(F)F)c1ccc(C(O)(C(F)(F)F)C(F)(F)F)cc1 + C[C@]1(O)C[C@@H](c2nc(-c3ccc4ccc(-c5ccccc5)nc4c3)c3c(N)nccn32)C1 [Linsitinib] (partner 1 µM)
Summary of the method: as §1

[5] = compound: O=S(=O)(c1ccccc1)N(CC(F)(F)F)c1ccc(C(O)(C(F)(F)F)C(F)(F)F)cc1 + CC(C)C[C@H](NC(=O)[C@H](Cc1ccccc1)NC(=O)c1cnccn1)B(O)O [Bortezomib] (partner 0.002 µM)
Summary of the method: as §1

Cell Line: UMC-11
- relative viability (RO-3306 + Pemetrexed; first compound 0.01 µM): 0.906
- relative viability (RO-3306 + Pemetrexed; first compound 0.03162 µM): 0.746
- relative viability (RO-3306 + Pemetrexed; first compound 0.1 µM): 0.816
- relative viability (RO-3306 + Pemetrexed; first compound 0.3162 µM): 0.816
- relative viability (RO-3306 + Pemetrexed; first compound 1 µM): 0.791
- relative viability ([1]; first compound 0.8 µM): 0.796
- relative viability ([1]; first compound 2.53 µM): 0.711
- relative viability ([1]; first compound 8 µM): 0.862
- relative viability ([2]; first compound 0.8 µM): 0.491
- relative viability ([2]; first compound 2.53 µM): 0.444
- relative viability ([2]; first compound 8 µM): 0.526
- relative viability ([3]; first compound 0.8 µM): 1.16
- relative viability ([3]; first compound 2.53 µM): 1.12
- relative viability ([3]; first compound 8 µM): 1.08
- relative viability ([4]; first compound 0.8 µM): 1.13
- relative viability ([4]; first compound 2.53 µM): 1.08
- relative viability ([4]; first compound 8 µM): 1.13
- relative viability ([5]; first compound 0.8 µM): 0.929
- relative viability ([5]; first compound 2.53 µM): 0.743
- relative viability ([5]; first compound 8 µM): 0.972
